Source: US11767282B2, “Composition biologically active to stenoma catenifer and sustained release preparation comprising the same for controlling insect pest” (Shin-Etsu Chemical Co., Ltd., priority 2021, dated 2023)
“Also recorded” adds a separate entry of the source.

Assays:
Stenoma catenifer [1] = settings: Stenoma catenifer males; Millar et al. 2008, Hoddle et al. 2009; cited from earlier work
Stenoma catenifer [2] = experiment: field trap evaluation of sustained release preparations (white adhesive trap); type: in vivo; settings: field traps, versus (9Z)-9,13-tetradecadien-11-ynal (1) alone
Description: A white adhesive trap was used for evaluation of the sustained release preparation. […] An adhesive substance is placed to the upper surface of the bottom plate, and the sustained release preparation A is directly mounted on the adhesive surface for use. In other words, the white adhesive trap has the structure in which only insect pests that come close to the sustained release preparation are captured, and the capture of untargeted insect pests are avoided as much as possible.
In the period of from September 23 and Nov. 25, 2019, the traps containing the respective sustained release preparations were installed in the orchards in which Stenoma catenifer lived. Adult male insect pests captured and killed in each trap were counted every 7 days. The control effect was evaluated by determining the relative value of the number of the insect pests captured by the sustained release preparation of Example 1 when regarding the total number of insect pests captured by the sustained release preparation of later-described Example 2 as 100.

[3] = test system: tomato fruit borer (Neoleucinodes elegantalis); settings: added to sex pheromone main component (11E)-11-hexadecenol; Cabrera, J. Chem. Ecol. 2001; cited from earlier work

Compound | effect on attraction number in field attraction tests (Stenoma catenifer [1]) | further results
CCCCC/C=C\C/C=C\CCCCCCCCCCCCC [(6Z,9Z)-6,9-tricosadiene] | did not affect the attraction number | 
C=CC#C/C=C/CCCCCCCC=O [(9E)-9,13-tetradecadien-11-ynal] |  | number of male adult insect pests captured compared with the comparative attractant (Stenoma catenifer [2]): increase in the total number of the captured insect pests
C=CC#C/C=C\CCCCCCCCO [(9Z)-9,13-tetradecadien-11-yn-1-ol] | reduced the attraction number; also recorded: attraction inhibitor | 
C=CC#C/C=C\CCCCCCCC=O [(9Z)-9,13-tetradecadien-11-ynal] | highest activity among the many attractant compositions; also recorded: attracted Stenoma catenifer | 
CCCC/C=C\CCCCCCCCCCO [(11Z)-11-hexadecenol] |  | effect of addition on attracted number [3]: greatly reduce the attracted number
